This passage reports IC50, MIC and inhibition results from ChEMBL document CHEMBL3576787, “Alkaloidal metabolites from a marine-derived Aspergillus sp. fungus” (J Nat Prod, 2015).

≈ marks a conversion by molar mass, not a printed value. Calls of active or inactive are those of the source. The rule behind the calls is not given here.

Test [1] in a line: Inhibition of porcine cerebral cortex Na+/K+ ATPase using 3-O-methylfluorescein phosphate and […] incubated for 30 mins by spectrophotometry. It counts as tissue-based, Sus scrofa.
In test [2] the test system is Proteus hauseri. Put plainly: Antimicrobial activity against Proteus hauseri incubated for 24 hrs. It counts as functional.
The target of test [3] is Isocitrate lyase (Candida albicans) (UniProt Q9P8Q7). Put plainly: Inhibition of Candida albicans isocitrate lyase assessed as reduction in glyoxylate phenylhydrazone formation using phenylhydrazine and isocitrate incubated for 30 mins by spectrophotometry.
Isocitrate lyase (Candida albicans), sequence (Q9P8Q7 whole entry): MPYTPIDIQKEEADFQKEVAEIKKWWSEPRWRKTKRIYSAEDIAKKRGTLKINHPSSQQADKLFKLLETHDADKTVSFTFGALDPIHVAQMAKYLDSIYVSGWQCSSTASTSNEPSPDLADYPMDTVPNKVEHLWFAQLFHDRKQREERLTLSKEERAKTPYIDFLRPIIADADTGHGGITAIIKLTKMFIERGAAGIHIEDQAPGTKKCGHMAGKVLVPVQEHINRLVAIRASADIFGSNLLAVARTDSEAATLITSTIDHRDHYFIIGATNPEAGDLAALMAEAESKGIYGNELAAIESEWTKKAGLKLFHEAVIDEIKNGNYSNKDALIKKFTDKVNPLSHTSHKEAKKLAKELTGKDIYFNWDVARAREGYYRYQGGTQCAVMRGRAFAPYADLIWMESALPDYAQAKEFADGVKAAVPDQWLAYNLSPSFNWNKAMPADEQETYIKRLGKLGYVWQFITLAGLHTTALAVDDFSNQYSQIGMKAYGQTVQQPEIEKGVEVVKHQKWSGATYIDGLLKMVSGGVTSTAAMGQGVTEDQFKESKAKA
In test [4] the test system is Escherichia coli. Put plainly: Antimicrobial activity against Escherichia coli incubated for 24 hrs. The class given is functional.
The test system of test [5] is Staphylococcus aureus. Nature of the test: Antimicrobial activity against Staphylococcus aureus incubated for 24 hrs. The class given is functional.
The subject of test [6] is Salmonella typhimurium. Put plainly: Antimicrobial activity against Salmonella typhimurium incubated for 24 hrs. It counts as functional, Salmonella enterica subsp. enterica serovar Typhimurium. The settings on record: Salmonella enterica.
The target in test [7] is Sortase A (Staphylococcus aureus) (UniProt Q2FV99). Nature of the test: Inhibition of sortase A (Staphylococcus aureus).
The test system of test [8] is K562. Nature of the test: Cytotoxicity against human K562 cells. The class given is functional, cell-based.
For test [9], the system named is A549. Nature of the test: Cytotoxicity against human A549 cells. It counts as functional, cell-based.
The subject of test [10] is Micrococcus luteus. Nature of the test: Antimicrobial activity against Micrococcus luteus incubated for 24 hrs. The class given is functional.

As to `CC[C@H]1C(=O)N2c3ccccc3[C@]3(O)C[C@@H](n4cnc5ccccc5c4=O)C(=O)N1[C@H]23`, the concentration for half-maximal inhibition (IC50) amounted to 19.5 µM in test [1], 25.9 µM in [8] and 19.3 µM in [9]. The minimal inhibitory concentration (MIC) in test [2], in test [4], in [5], in test [6] and in test [10] was over 100 µg/mL each time. In addition, the inhibition result in [3] and in test [7] was “inactive” each time.
Turning to `CC(C)[C@@H]1N[C@@H]2N(C1=O)c1ccccc1[C@]2(O)C[C@@H]1C(=O)N[C@@H](C)c2nc3ccccc3c(=O)n21`, the IC50 stood at 34.3 µM in [1], 13.8 µM in test [8] and 15.8 µM in [9]. In addition, the MIC in test [2], in test [4], in [5], in [6] and in test [10] was over 100 µg/mL each time. Also, the inhibition entry in [3] and in test [7] was “inactive” throughout.
For `C[C@H]1C(=O)N2c3ccccc3[C@]3(O)C[C@@H](n4cnc5ccccc5c4=O)C(=O)N1[C@H]23`, the IC50 in [1] was found to be 78.1 µM; in test [8], 50.4 µM; in test [9] it was 21.9 µM. The MIC in [2], in test [4], in [5], in [6] and in [10] was over 100 µg/mL in each case. Further, the inhibition entry in [3] and in test [7] was “inactive” in each case.
Regarding `CC(C)[C@H]1C(=O)N2c3ccccc3[C@]3(O)C[C@H](n4cnc5ccccc5c4=O)C(=O)N1[C@H]23`, the IC50 in test [1] worked out at 56.8 µM; in test [8] it was 17.8 µM; in test [9], 29.2 µM. Further, the minimal inhibitory concentration (MIC) is 100 µg/mL (≈ 232 µM) in [2]; over 100 µg/mL in test [4]; 100 µg/mL (≈ 232 µM) in test [5]; 100 µg/mL (≈ 232 µM) in [6]; over 100 µg/mL in test [10]. The inhibition entry in [3] and in test [7] was “inactive” each time.
Regarding `COc1cccc2c1C(=O)c1c(O)c3c(c(O)c1C2=O)C[C@@](O)(C(=O)CO)C[C@@H]3O[C@H]1C[C@H](N)[C@H](O)[C@H](C)O1` [DOXORUBICIN], the 50% inhibitory concentration (IC50) stood at 1.46 µM in [8] and 1.83 µM in test [9].
On to `C[C@@H]1O[C@@H](O[C@H]2C[C@@H](O)[C@]3(CO)[C@H]4[C@H](O)C[C@]5(C)[C@@H](C6=CC(=O)OC6)CC[C@]5(O)[C@@H]4CC[C@]3(O)C2)[C@H](O)[C@H](O)[C@H]1O` [OUABAIN], for which the half-maximal inhibitory concentration (IC50) in test [1] came to 6.43 µM.
For `CC1(C)S[C@@H]2[C@H](NC(=O)[C@H](N)c3ccccc3)C(=O)N2[C@H]1C(=O)O` [AMPICILLIN], the MIC in [2] was determined as 0.39 µg/mL (≈ 1.12 µM); in [4] it was 3.13 µg/mL (≈ 8.96 µM); in test [5], 0.78 µg/mL (≈ 2.23 µM); in test [6], 0.78 µg/mL (≈ 2.23 µM); in test [10] it was 0.2 µg/mL (≈ 0.572 µM).
On to `CC(C)[C@H]1C(=O)N2c3ccccc3[C@]3(O)C[C@@H](n4cnc5ccccc5c4=O)C(=O)N1[C@H]23`, for which the half-inhibitory concentration (IC50) in test [1] was determined as 37.9 µM; in [8] it was 14.4 µM; in [9], 18.6 µM. For the same compound, the MIC in [2], in test [4], in test [5], in test [6] and in test [10] was over 100 µg/mL in each case. Also, the inhibition result in [3] and in test [7] was “inactive” each time.
Turning to `C[C@@H]1NC(=O)[C@@H](Cc2c[nH]c3ccccc23)n2c1nc1ccccc1c2=O` [FUMIQUINAZOLINE F], the values for the IC50 in test [1], in test [8] and in test [9] were 17.4 µM, over 100 µM and over 100 µM, respectively. Moreover, the MIC in test [2] is 100 µg/mL (≈ 279 µM); in [4], over 100 µg/mL; in test [5] it was over 100 µg/mL; in test [6] it was over 100 µg/mL; in test [10] it was over 100 µg/mL. Moreover, the inhibition entry in test [3] and in [7] was “inactive” in each case.
Consider `CC(C)[C@@H]1N[C@@H]2N(C1=O)c1ccccc1[C@]21C[C@@H]2C(=O)N[C@](C)(O1)c1nc3ccccc3c(=O)n12` [FUMIQUINAZOLINE L], for which the values for the half-inhibitory concentration (IC50) in [1], in test [8] and in test [9] were 20.2 µM, over 100 µM and over 100 µM, respectively. In addition, the MIC was over 100 µg/mL in test [2]; over 100 µg/mL in [4]; over 100 µg/mL in [5]; 100 µg/mL (≈ 212 µM) in [6]; 100 µg/mL (≈ 212 µM) in [10]. The inhibition result in [3] and in test [7] was “inactive” throughout.

As a reminder, the IC50 is the concentration at which inhibition is half-maximal. Low readings indicate higher potency, high ones lower potency. What is called MIC is the lowest concentration that inhibits growth of the organism.
